In patent US8889629B2, “Use of a cyclic undecapeptide for the preparation of a medicament for administration during myocardial ischaemic events” (Debiopharm International SA, priority 2005, dated 2014):

Key:
[1] = tested on: myocardial infarction (ischemia-reperfusion); test: Model of ischemia-reperfusion in the rabbit, cardioprotective effect (infarction size); format: in vivo
Experimental: The aim of this study is to test the cardioprotective effect of the cyclic undecapeptide of formula (I), otherwise referred to as [MeAla]^3-[EtVal]^4-CsA, in terms of reduction in the size of the myocardial infarction measured 4 hours after the occurrence of the infarction.
After tracheotomy and ventilation with ambient air, a thoracotomy is performed in the fourth left intercostal space. A marginal branch of the left circumflex coronary artery is ligatured using a 3.0 silk suture thread. During the procedure, the temperature, the heart rate and the blood pressure are controlled. After occlusion for 30 minutes, the ligature is released (reperfusion) and the animals are kept in a controlled atmosphere for 4 hours before euthanasia.
One group of animals receives the pharmaceutical carrier for [MeAla]^3-[EtVal]^4-CsA, another group is treated with [MeAla]^3-[EtVal]^4-CsA intravenously in the form of a single injection respectively of 20 mg/kg, one minute before the ligature is released. Four hours after the reperfusion, the coronary artery is briefly reoccluded and a blue dye is injected intravenously so as to determine the zone at risk. […] The areas of the zones at risk and of the infarcted myocardium or area of necroses are determined by planimetry. The size of the infarction and the size of the zone at risk are calculated and expressed as percentage of left ventricular weight.

[2] = tested on: myocardial infarction (ischemia-reperfusion); test: Model of ischemia-reperfusion in the mouse, post-infarction period (infarction size, ventricular remodeling, survival); format: in vivo
Experimental: After anesthesia, the mice are intubated and ventilated with a rodent ventilator. The rectal temperature is controlled and maintained at 38°-39° C. After sternotomy, the anterior interventricular artery is ligatured with an 8-0 polypropylene thread. The ischemia is visualized through the appearance of an elevated ST segment on the ECG (electrocardiogram) and the paleness of the myocardium. After 25 minutes of occlusion, the ligature is released and the reperfusion is verified by visual inspection and disappearance of the upshift in the ST segment. The thoracic wall is closed by suturing and the mice are kept in a controlled-temperature atmosphere.
One group of animals receives the carrier for [MeAla]^3-[EtVal]^4-CsA; another group is treated with [MeAla]^3-[EtVal]^4-CsA by intravenous injection (single injection at 10 mg/kg), 3 minutes before the ligature is released. The animals are monitored for 30 days and the mortality is reported for each group.
Four weeks after the reperfusion, the left ventricular remodeling is studied by Doppler echocardiography and the left ventricular ejection fraction is measured.
The zone at risk and the size of the infarction are determined in a group of animals that have undergone 25 minutes of coronary occlusion followed by 24 hours of reperfusion. After a brief reocclusion of the anterior interventricular artery, a blue dye is injected via the vena cava so as to determine the zone at risk. The animals are anesthetized and the heart is excised. The ventricle is cut into 5 thin slices and photographed. Incubation of these slices in 2,3,5-triphenyltetrazolium for 15 minutes at 37° C. makes it possible to differentiate the live (brick red) and necrosed (pale yellow) zones of the myocardium. The slices are photographed. The areas of the zones at risk and of the infarcted myocardium are determined by planimetry. The size of the infarction and the size of the zone at risk are calculated and expressed as percentage of left ventricular weight.

[3] = tested on: septic shock with myocardial dysfunction; test: Model of septic shock in the mouse (cecal ligature and puncture), survival; format: in vivo; details: 10 mg/kg parenteral injection just after induction of septic shock, 72 hours after induction of the sepsis (FIG. 2)
Experimental: After the mice had been anesthetized, a peritonitis is induced by cecal ligature and puncture, as follows: a median laparotomy is performed, the cecum is lifted out and a single puncture of said cecum is performed below the ileocecal valve with a 21-gauge needle. The cecum is put back into the abdominal cavity, which is then sutured in 2 planes. After the mice have come round, they are given a parenteral injection of the analgesic nalbuphine.
One group of animals receives physiological saline (control group); another group is treated with [MeAla]^3-[EtVal]^4-CsA at a rate of 10 mg/kg by parenteral injection just after surgical induction of septic shock. The animals are monitored for 4 days and the mortality is reported for each group.

[4] = tested on: human immunodeficiency virus; details: cited from earlier work
[5] = compared with cyclosporin A; cited from earlier work
[6] = tested on: MPTP of mitochondria isolated from the brain; details: Hansson et al. 2004; cited from earlier work

Substance: [MeAla]^3-[EtVal]^4-CsA
- decrease in the size of the infarction in the zone at risk compared with pharmaceutical carrier ([1]; 20 mg/kg i.v., 4 hours after reperfusion): ~40%
- Infarction size (AN/AR ± SD) ([1]; 30 min occlusion, single i.v. injection 20 mg/kg one minute before ligature release, measured 4 hours after reperfusion): 29 ± 6.0%
- Left ventricular ejection fraction ± SD ([2]; mouse, 10 mg/kg i.v. 3 minutes before ligature release, Doppler echocardiography 4 weeks after reperfusion): 77 ± 6%
- mortality rate at 4 weeks ([2]; mouse, 10 mg/kg i.v. 3 minutes before ligature release, vs carrier (FIG. 1)): a decrease in the mortality rate
- decrease in the size of the infarction in the zone at risk ([2]; mouse, 10 mg/kg i.v., 24 hours after reperfusion, vs carrier (table 2)): ~50%
- Infarction size (AN/AR ± SD) ([2]; mouse, 25 min occlusion, single i.v. injection 10 mg/kg 3 minutes before ligature release, 24 hours after reperfusion): 32.1 ± 7.3%
- beneficial effects when administration is too early or too late relative to the reperfusion ([2]; same dose of active compound): not obtained
- survival rate [3]: approximately 60%
- activity in terms of inhibiting the action of the human immunodeficiency virus [4]: strong activity
- immunosuppressive properties [5]: not having the well-known immunosuppressive properties
- neuroprotective potential: inhibition of MPTP [6]: inhibition of MPTP
